Reference: patent publication US20010047099A1, “4-aminopicolinates and their use as herbicides” (priority 2000, published 2001)
Each block holds one compound with its values, some of them ahead of it.

Columns and labels:
[1] = tested on: chickweed (Stellaria media); assay: Postemergence herbicidal activity; format: in vivo; settings: Table 1, visual, after 2 weeks; for pest or weed control at 250 ppm / pest or weed control at 125 ppm: Stellaria media, post-emergence, 336 h, read-out: Post-emergent % Control STEME; for pest or weed control at 250 ppm: rate 250 ppm
Protocol: (§1) Seeds of the desired test plant species were planted in Grace-Sierra MetroMix® 306 planting mixture, which typically has a pH of 6.0 to 6.8 and an organic matter content of about 30 percent, in plastic pots with a surface area of 64 square centimeters. When required to ensure good germination and healthy plants, a fungicide treatment and/or other chemical or physical treatment was applied. The plants were grown for 7-21 days in a greenhouse with an approximate 15 hr photoperiod which was maintained at about 23-29° C. during the day and 22-28° C. during the night. Nutrients and water were added on a regular basis and supplemental lighting was provided with overhead metal halide 1000-Watt lamps as necessary. The plants were employed for testing when they reached the first or second true leaf stage.
(§2) A weighed amount, determined by the highest rate to be tested, of each test compound was placed in a 20 mL glass vial and was dissolved in 4 mL of a 97:3 v/v (volume/volume) mixture of acetone and dimethyl sulfoxide (DMSO) to obtain concentrated stock solutions. […] The concentrated stock solutions obtained were diluted with an aqueous mixture containing acetone, water, isopropyl alcohol, DMSO, Atplus 411F crop oil concentrate, and Triton X-155 surfactant in a 48.5:39:10:1.5:1.0:0.02 v/v ratio to obtain spray solutions of known concentration. The solutions containing the highest concentration to be tested were prepared by diluting 2 mL aliquots of the stock solution with 13 mL of the mixture and lower concentrations were prepared by serial dilution of the stock solution. Approximately 1.5 mL aliquots of each solution of known concentration were sprayed evenly onto each of the test plant pots using a DeVilbiss atomizer driven by compressed air pressure of 2 to 4 psi ([…]) to obtain thorough coverage of each plant. Control plants were sprayed in the same manner with the aqueous mixture. In this test an application rate of 1 ppm results in the application of approximately 1 g/Ha.
(§3) The treated plants and control plants were placed in a greenhouse as described above and watered by sub-irrigation to prevent wash-off of the test compounds. After 2 weeks the condition of the test plants as compared with that of the untreated plants was determined visually and scored on a scale of 0 to 100 percent where 0 corresponds to no injury and 100 corresponds to complete kill.

[2] = tested on: cocklebur (Xanthium strumarium); assay: Postemergence herbicidal activity; format: in vivo; settings: Table 1, visual, after 2 weeks; for pest or weed control at 250 ppm / pest or weed control at 125 ppm: Xanthium strumarium, post-emergence, 336 h, read-out: Post-emergent % Control XANST; for pest or weed control at 250 ppm: rate 250 ppm
Protocol: as §1, §2, §3

[3] = tested on: wild buckwheat (Polygonum convolvulus); assay: Postemergence herbicidal activity; format: in vivo; settings: Table 1, visual, after 2 weeks; for pest or weed control at 250 ppm / pest or weed control at 125 ppm: Fallopia convolvulus, post-emergence, 336 h, read-out: Post-emergent % Control POLCO; for pest or weed control at 250 ppm: rate 250 ppm
Protocol: as §1, §2, §3

[4] = tested on: morningglory (Ipomoea hederacea); assay: Preemergence herbicidal activity; format: in vivo; settings: Table 6 (headed Post-emergent; text: preemergence), after 3 weeks
Excerpt: (§4) Seeds of the desired test plant species were planted in a soil matrix prepared by mixing a loam soil (43 percent silt, 19 percent clay, and 38 percent sand, with a pH of about 8.1 and an organic matter content of bout 1.5 percent) and sand in a 70 to 30 ratio. The soil matrix was contained in plastic pots with a surface area of 113 square centimeters. When required to ensure good germination and healthy plants. a fungicide treatment and/or other chemical or physical treatment was applied.
(§5) A weighed amount, determined by the highest rate to be tested, of each test compound was placed in a 20 mL glass vial and was dissolved in 4 mL of a 97:3 v/v (volume/volume) mixture of acetone and dimethyl sulfoxide to obtain concentrated stock solutions. […] The stock solutions obtained were diluted with a 99.9:0.1 mixture of water and Tween® […] surfactant to obtain application solutions of known concentration. The solutions containing the highest concentration to be tested were prepared by diluting 2 mL aliquots of the stock solution with 15 mL of the mixture and lower concentrations were prepared by serial dilution of the stock solution. A 2.5 mL aliquot of each solution of known concentration was sprayed evenly onto the soil surface (113 sq. cm) of each seeded pot using a Cornwall 5.0 mL glass syringe fitted with a TeeJet TN-3 hollow cone nozzle to obtain thorough coverage of the soil in each pot. Control pots were sprayed in the same manner with the aqueous mixture.
(§6) The treated pots and control pots were placed in a greenhouse maintained with an approximate 15 hr photoperiod and temperatures of about 23-29° C. during the day and 22-28° C. during the night. Nutrients and water were added on a regular basis and supplemental lighting was provided with overhead metal halide 1000-Watt lamps as necessary. The water was added by top-irrigation. After 3 weeks the condition of the test plants that germinated and grew as compared with that of the untreated plants that germinated and grew was determined visually and scored on a scale of 0 to 100 percent where 0 corresponds to no injury and 100 corresponds to complete kill or no germination.

[5] = tested on: pigweed (Amaranthus retroflexus); assay: Preemergence herbicidal activity; format: in vivo; settings: Table 6 (headed Post-emergent; text: preemergence), after 3 weeks
Excerpt: as §4, §5, §6

[6] = tested on: velvetleaf (Abutilon theophrasti); assay: Preemergence herbicidal activity; format: in vivo; settings: Table 6 (headed Post-emergent; text: preemergence), after 3 weeks
Excerpt: as §4, §5, §6

[7] = Ipomoea, 504 h, rate 560 ppm, read-out: % Control IPOHE
[8] = Amaranthus retroflexus, 504 h, rate 560 ppm, read-out: % Control AMARE
[9] = Abutilon theophrasti, 504 h, rate 560 ppm, read-out: % Control ABUTH

- melting point: 173 °C
SMILES: Cc1ccc(Oc2cc(N)c(Cl)c(C(=O)O)n2)cc1 [Compound 50, 4-amino-3-chloro-6-(4-methylphenoxy)-pyridine-2-carboxylic acid]
- pest or weed control at 250 ppm [1]: 0%
- pest or weed control at 250 ppm [2]: 60%
- pest or weed control at 250 ppm [3]: 70%
- pest or weed control at 70 ppm ([4]; Ipomoea, 504 h, rate 70 ppm, read-out: % Control IPOHE): 0%
- pest or weed control at 70 ppm ([5]; Amaranthus retroflexus, 504 h, rate 70 ppm, read-out: % Control AMARE): 0%
- pest or weed control at 70 ppm ([6]; Abutilon theophrasti, 504 h, rate 70 ppm, read-out: % Control ABUTH): 0%

- melting point: 240 to 241 °C
SMILES: NC(=O)c1nc(Cl)cc(N)c1Cl [Compound 11, 4-Amino-3,6-dichloropyridine-2-carboxamide]
- pest or weed control at 125 ppm ([1]; rate 125 ppm): 85%
- pest or weed control at 125 ppm ([2]; rate 125 ppm): 80%
- pest or weed control at 125 ppm ([3]; rate 125 ppm): 95%
- pest or weed control at 560 ppm [4, 7]: 85%
- pest or weed control at 560 ppm [5, 8]: 0%
- pest or weed control at 560 ppm [6, 9]: 85%

- melting point: 176 °C
SMILES: Nc1cc(Oc2cccc(Cl)c2)nc(C(=O)O)c1Cl [Compound 53, 4-amino-3-chloro-6-(3-chlorophenoxy)-pyridine-2-carboxylic acid]
- pest or weed control at 250 ppm [1]: 100%
- pest or weed control at 250 ppm [2]: 100%
- pest or weed control at 250 ppm [3]: 100%
- pest or weed control at 560 ppm [4, 7]: 100%
- pest or weed control at 560 ppm [5, 8]: 0%
- pest or weed control at 560 ppm [6, 9]: 100%

- melting point: 196 °C
SMILES: Nc1cc(Oc2cc(Cl)cc(Cl)c2)nc(C(=O)O)c1Cl [Compound 47, 4-Amino-3-chloro-6-(3,5-dichlorophenoxy)pyridine-2-carboxylic acid]
- pest or weed control at 250 ppm [1]: 100%
- pest or weed control at 250 ppm [2]: 100%
- pest or weed control at 250 ppm [3]: 100%
- pest or weed control at 280 ppm ([4]; Ipomoea, 504 h, rate 280 ppm, read-out: % Control IPOHE): 0%
- pest or weed control at 280 ppm ([5]; Amaranthus retroflexus, 504 h, rate 280 ppm, read-out: % Control AMARE): 100%
- pest or weed control at 280 ppm ([6]; Abutilon theophrasti, 504 h, rate 280 ppm, read-out: % Control ABUTH): 95%

- melting point: 154 to 156 °C
SMILES: COc1c(Cl)nc(C(=O)O)c(Cl)c1N [Compound 22, 4-Amino-3,6-dichloro-5-methoxypyridine-2-carboxylic acid]
- pest or weed control at 250 ppm [1]: 90%
- pest or weed control at 250 ppm [2]: 80%
- pest or weed control at 250 ppm [3]: 100%
- pest or weed control at 560 ppm [4, 7]: 100%
- pest or weed control at 560 ppm [5, 8]: 100%
- pest or weed control at 560 ppm [6, 9]: 100%

- melting point: 84 to 86 °C
SMILES: Cc1c(Br)nc(C(=O)O)c(Cl)c1N=[N+]=[N-] [Compound 38, Methyl 4-azido-6-bromo-3-chloropyridine-2-carboxylic acid]

- melting point: 205 °C (dec.)
SMILES: Nc1cc(Br)nc(C(=O)O)c1Br [Compound 17, 4-Amino-3,6-dibromopyridine-2-carboxylic acid]
- pest or weed control at 250 ppm [1]: 80%
- pest or weed control at 250 ppm [2]: 100%
- pest or weed control at 250 ppm [3]: 100%
- pest or weed control at 560 ppm [4, 7]: 100%
- pest or weed control at 560 ppm [5, 8]: 100%
- pest or weed control at 560 ppm [6, 9]: 100%

- melting point: 173 °C
SMILES: Nc1c(Cl)c(C(=O)O)nc(Cl)c1C(F)(F)F [Compound 21, 4-Amino-3,6-dichloro-5-trifluoromethylpyridine-2-carboxylic acid]
- pest or weed control at 250 ppm [1]: 20%
- pest or weed control at 250 ppm [2]: 70%
- pest or weed control at 250 ppm [3]: 20%
- pest or weed control at 560 ppm [4, 7]: 90%
- pest or weed control at 560 ppm [5, 8]: 80%
- pest or weed control at 560 ppm [6, 9]: 80%

The remaining lines, values behind:

SMILES: O=C(O)c1nc(Cl)cc(N2CCCC2)c1Cl [Compound 36, 4-pyrrolidino-3,6-dichloropyridine-2-carboxylic acid]
- pest or weed control at 125 ppm ([1]; rate 125 ppm): 40%
- pest or weed control at 125 ppm ([2]; rate 125 ppm): 50%
- pest or weed control at 125 ppm ([3]; rate 125 ppm): 80%
- melting point: 153 to 155 °C
- pest or weed control at 560 ppm [4, 7]: 80%
- pest or weed control at 560 ppm [5, 8]: 80%
- pest or weed control at 560 ppm [6, 9]: 95%

SMILES: Nc1c(Cl)c(C(=O)O)nc(C(F)(F)F)c1Cl [Compound 45, 4-Amino-3,5-dichloro-6-trifluoromethylpyridine-2-carboxylic acid]
- pest or weed control at 250 ppm [1]: 0%
- pest or weed control at 250 ppm [2]: 90%
- pest or weed control at 250 ppm [3]: 80%
- melting point: 178 °C (dec.)
- pest or weed control at 125 ppm ([4]; Ipomoea, 504 h, rate 125 ppm, read-out: % Control IPOHE): 100%
- pest or weed control at 125 ppm ([5]; Amaranthus retroflexus, 504 h, rate 125 ppm, read-out: % Control AMARE): 100%
- pest or weed control at 125 ppm ([6]; Abutilon theophrasti, 504 h, rate 125 ppm, read-out: % Control ABUTH): 90%

SMILES: COC(=O)c1nc(Cl)c([N+](=O)[O-])c(N)c1Cl [Compound 25, Methyl 4-amino-3,6-dichloro-5-nitropyridine-2-carboxylate]
- pest or weed control at 250 ppm [1]: 50%
- pest or weed control at 250 ppm [2]: 60%
- pest or weed control at 250 ppm [3]: 50%
- melting point: 127 to 128 °C

SMILES: CCCCOCCOC(=O)c1nc(Cl)cc(N)c1Cl (hydrate or solvate) [Compound 10, butoxyethyl 4-amino-3,6-dichloropyridine-2-carboxylate]
- melting point: 64 to 67 °C

SMILES: CCCCNc1cc(Cl)nc(C(=O)O)c1Cl [Compound 29, 4-N-butylamino-3,6-dichloropyridine-2-carboxylic acid]
- pest or weed control at 250 ppm [1]: 90%
- pest or weed control at 250 ppm [2]: 95%
- pest or weed control at 250 ppm [3]: 90%
- melting point: 96 to 97 °C
- pest or weed control at 560 ppm [4, 7]: 100%
- pest or weed control at 560 ppm [5, 8]: 100%
- pest or weed control at 560 ppm [6, 9]: 100%

SMILES: CON(C)c1cc(Cl)nc(C(=O)O)c1Cl [Compound 35, 4-N-methoxy-N-methyl-3,6-dichloropyridine-2-carboxylic acid]
- Post-emergent % Control STEME ([1]; rate 125 ppm): 60%
- Post-emergent % Control XANST ([2]; rate 125 ppm): 90%
- Post-emergent % Control POLCO ([3]; rate 125 ppm): 100%
- % Control IPOHE ([4]; rate 560 ppm): 85%
- % Control AMARE ([5]; rate 560 ppm): 95%
- % Control ABUTH ([6]; rate 560 ppm): 90%
